Data as given in patent US20240238299A1, “USE OF PYRROLOPYRIMIDINE COMPOUND” (GUANGZHOU JOYO PHARMATECH CO., LTD, priority 2021, published 2024).

Key:
[1] = tested on: STAT3 phosphorylation (p-STAT3/STAT3) in spinal cord; experiment: EAE mouse model, STAT3 phosphorylation in spinal cord (Western blot); format: in vivo, C57BL/6 mice; details: for inhibition rate of STAT3 phosphorylation in spinal cord: day 28
[2] = tested on: IL-6-induced pSTAT1 in hPBMC; experiment: IL-6-induced pSTAT1 in hPBMC (flow cytometry, CD4 positive cells); format: cell-based; details: Homo sapiens, 10 ng/mL IL-6, CD4 positive cells
Description: • 1) Preparation of culture medium: 1640 medium+10% fetal bovine serum+1% penicillin/streptomycin+1% non-essential amino acids (all percentages were v/v) • 2) Cells were thawed in a 37° C. water bath and then centrifuged. The cell concentration was adjusted to 5×10^5 cells/mL using the prepared culture medium. • 3) Cell suspension was seeded into a 96-well round-bottom plate at 200 μL/well and incubated at 37° C. for 90 minutes. • 4) Drugs were added, followed by a 37° C. incubation for 30 minutes. • 5) Cells were then stimulated by adding 10 ng/mL of IL-6 or 4 ng/mL of IL-2, followed by a 37° C. incubation for 15 minutes.
• 1) After completing the stimulation, cells were centrifuged and washed once with staining buffer (DPBS+2% bovine serum albumin). Antibodies were then added for a 30-minute staining process at 4° C. […]
• 1) Response %=[(MFI value of drug-treated well−mean MFI value of control well)/(mean MFI value of DMSO well−mean MFI value of control well)]*100% was calculated. • 2) The calculated Response % values were input into GraphPad Prism 8 software. […]

[3] = tested on: rat primary astrocytes; experiment: Cell viability (CCK-8) in NMO-IgG induced astrocyte injury model; format: cell-based
[4] = Rattus norvegicus, Astrocyte, 24 h, read-out: Cell viability percentage, Mean

Question: Which results are given for `CN(c1ncnc2[nH]ccc12)[C@@H]1CCc2cc(C#N)nn2C1` [Compound I]?
Answer: inhibition rate of STAT3 phosphorylation in spinal cord ([1]; 10 mg/kg BID): 86%; inhibition rate of STAT3 phosphorylation in spinal cord ([1]; 20 mg/kg BID): 86%; STAT3 phosphorylation in spinal cord ([1]; all dose groups, day 28, 0.25 h after administration): significantly inhibited the level of STAT3 phosphorylation in spinal cord; IC50 [2]: 73.1 nM; inhibitory effect on cell viability ([3]; 24 h co-incubation, highest test concentration 20 μM): no inhibitory effect on cell viability; viability at 0.027 µM [3, 4]: 112%; viability at 0.247 µM [3, 4]: 105%; viability at 2.222 µM [3, 4]: 99.7%; viability at 20 µM [3, 4]: 99.4%
